{"source": "paper PMC6162201", "about": "“Towards a comprehensive understanding of the structural dynamics of a bacterial diterpene synthase during catalysis” (Nature Communications, 2018)", "molecular_target": "T1, CotB2 (CotB2^wt) (Streptomyces melanosporofaciens, UniProt C9K1X5)", "T1 construct": "C-terminal His6 tag, pET-24a, expressed in E. coli Rosetta2 (DE3)", "T1 sequence (C9K1X5 1-307)": "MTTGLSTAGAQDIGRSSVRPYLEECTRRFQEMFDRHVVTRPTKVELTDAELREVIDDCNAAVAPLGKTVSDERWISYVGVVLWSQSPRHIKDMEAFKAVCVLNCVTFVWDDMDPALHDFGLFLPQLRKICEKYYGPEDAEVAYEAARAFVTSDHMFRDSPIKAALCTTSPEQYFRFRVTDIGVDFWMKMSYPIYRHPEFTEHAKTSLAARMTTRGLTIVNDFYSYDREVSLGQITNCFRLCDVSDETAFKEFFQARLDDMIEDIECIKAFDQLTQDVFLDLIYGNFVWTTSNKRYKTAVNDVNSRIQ", "assay_type": "binding", "settings": "Mg2+ (three ions), pH 8.5; active site, diphosphate mimic, closed state"}
{"smiles": "NCCCC(O)(P(=O)(O)O)P(=O)(O)O", "note": "[AHD, (4-amino-1-hydroxy-1-phosphonobutyl)phosphonate]", "values": [{"measurement": "X-ray crystal structure, co-crystallisation", "value": "we crystallised CotB2 with (4-amino-1-hydroxy-1-phosphonobutyl)phosphonate (alendronate (AHD)"}]}
